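Results reflect a 48-hour exposure of cells in 96-well plates to compound at five concentrations. Abbreviation: GI50, concentration required for 50% inhibition of growth. TGI marks complete inhibition of growth.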
Tested on: SK-MEL-2 melanoma
Experiment: NCI tumour cell line growth inhibition, 48 h

**Q.** `Cc1cccc(NC(=O)C(=O)C(C(=O)c2ccc3ccccc3c2)C2OC(=O)c3ccccc32)c1C` (configuration not stated) was tested. Which TGI did it give?
**A.** 29.8 µM

**Q.** `CS/C(N)=N\NC(=O)CCC(=O)Nc1ccccc1C(F)(F)F` was tested. Which TGI did it give?
**A.** > 100 µM

**Q.** With `CC(C)(C)c1ccc2c(c1)S(=O)(=O)Nc1ccccc1NS(=O)(=O)c1cc(C(C)(C)C)ccc1OCCOCCOCCO2` as the compound, how does the TGI read?
**A.** > 100 µM

**Q.** For `Clc1ccc(C2=Nn3c(COc4ccccc4Cl)nnc3SC2)c(Cl)c1`, which GI50 is on record?
**A.** 25.1 µM

**Q.** And the TGI?
**A.** 57.4 µM

**Q.** `COc1cc2c3c(n(CCCNC(=O)OCC4c5ccccc5-c5ccccc54)c(=O)c2cc1OC)-c1cc2c(cc1/C3=C\CCNC(=O)OCC1c3ccccc3-c3ccccc31)OCO2` was tested. Which GI50 did it give?
**A.** > 10.2 µM

**Q.** What about the TGI of the same compound?
**A.** > 21.6 µM

**Q.** Which results are given for `CCC[CH2][Sn]1([CH2]CCC)[O]CC(CN2CCCC2)[O]1` (configuration not stated)?
**A.** GI50: 13.8 µM; TGI: 27.1 µM

**Q.** How did the TGI turn out when `CC1(C)C(=O)N(CCCCCCN2C(=O)C(C)(C)c3ccccc32)c2ccccc21` was run?
**A.** > 100 µM

**Q.** With `NCCCCN(CCCN)/[N+]([O-])=N\O` as the compound, how does the TGI read?
**A.** > 100 µM

**Q.** Which TGI does the source give for `CCOc1ccccc1NC(=O)CC(C(=O)OC)C(=O)C(=O)OC` (configuration not stated) here?
**A.** > 100 µM

**Q.** Which results are given for `C[C@@]12CC=C3c4nc(Nc5cccc(O)c5)sc4CC[C@]3(C)[C@H]1CC[C@]1(C)C(=O)CC[C@@H]21`?
**A.** GI50: 2.86 µM; TGI: 9.99 µM

**Q.** For `COC(=O)C1=C(C)N(NC(=O)OC(C)(C)C)C(=O)C1=P(c1ccccc1)(c1ccccc1)c1ccccc1`, which TGI is on record?
**A.** > 100 µM

**Q.** `O=C1OC(c2ccccc2)=N/C1=C\c1cccc2ccccc12` was tested. Which TGI did it give?
**A.** > 100 µM

**Q.** For `Cc1cccc(NC(=O)/C(=N\NC(C)(C)C)C2NC(=S)NC2=O)c1C` (configuration not stated), which TGI is on record?
**A.** > 100 µM

**Q.** How did the TGI turn out when `c1ccc(CNn2nnc3ccccc32)cc1` was run?
**A.** > 100 µM

Tested on: SNB-75 CNS
Experiment: NCI tumour cell line growth inhibition, 48 h

**Q.** Which TGI does the source give for `Cc1nc(N)sc1C(=O)/C=C\c1ccc2c(c1)OCO2` here?
**A.** > 100 µM

**Q.** Which TGI does the source give for `COc1cc(C(C)O)c[n+](CCc2c[nH]c3ccccc23)c1` (configuration not stated) here?
**A.** > 100 µM

**Q.** How did the TGI turn out when `CC1(C)SCc2nc3ncccc3n21` was run?
**A.** > 100 µM

**Q.** `Cn1c(=O)c(C(c2ccc([N+](=O)[O-])cc2)c2c(O)c3ccccc3n(C)c2=O)cc2ccccc21` (configuration not stated) was tested. Which TGI did it give?
**A.** 85.1 µM

**Q.** With `Cc1cn(C2CC(O)C(CO)O2)c(=O)n2nnnc12` (configuration not stated) as the compound, how does the TGI read?
**A.** > 100 µM

**Q.** Which TGI does the source give for `COc1ccc(C(=O)C(C(=O)CCC(=O)Nc2cccc(Cl)c2)c2ccc(OC)cc2)cc1` (configuration not stated) here?
**A.** > 100 µM

**Q.** How did the TGI turn out when `CCOC(=O)C1=C(C)N(NC(=O)Nc2ccccc2)C(=O)C1=P(c1ccccc1)(c1ccccc1)c1ccccc1` was run?
**A.** > 100 µM

**Q.** How did the TGI turn out when `COc1cc(C=C2C(=O)NC(=O)NC2=O)cc(OC)c1OC` was run?
**A.** > 100 µM

**Q.** `Nn1c(=O)n(Cc2ccccc2)n(-c2ccccc2)c1=O` was tested. Which TGI did it give?
**A.** > 100 µM

**Q.** With `NCC1Nc2ccccc2[C@@H](O)C1O` (some centres not stated) as the compound, how does the TGI read?
**A.** > 100 µM

**Q.** Which GI50 does the source give for `Cc1cccc(N2CCN(C(=S)c3ccc4c(c3)OCO4)CC2)c1` here?
**A.** 0.8 µM

**Q.** And the TGI?
**A.** 6.85 µM

**Q.** For `N#CCN1C(=O)c2cccc3cc([N+](=O)[O-])cc(c23)C1=O`, which TGI is on record?
**A.** > 100 µM

**Q.** `Clc1nc(Cl)c(Cl)c(-c2ccccc2)n1` was tested. Which TGI did it give?
**A.** 21.5 µM

**Q.** For `CC1CC[C@]2(C(=O)O)CCC3(C)C(=CC(=O)C4[C@@]5(C)CCC(=O)C(C)(C)C5CC[C@]43C)[C@@H]2[C@H]1C` (some centres not stated), which TGI is on record?
**A.** > 100 µM

**Q.** Which TGI does the source give for `CC(C)C(Nc1c2ccccc2nc2ccccc12)C(=O)O` (configuration not stated) here?
**A.** > 100 µM

**Q.** Which TGI does the source give for `COc1ccccc1CCc1cc(OC)c(OC)c(OC)c1` here?
**A.** > 100 µM

**Q.** `COc1cc2c(cc1OC)C(CC(=O)NN=C(C)C)NCC2` (configuration not stated) was tested. Which TGI did it give?
**A.** > 100 µM

**Q.** Which TGI does the source give for `COC(=O)/C(=N\Nc1nnc(C)n1N)C(C#N)c1ccc(Cl)cc1` (configuration not stated) here?
**A.** > 100 µM

**Q.** For `Cc1cccc(NC(=O)C(=O)C(C(=O)c2ccc3ccccc3c2)C2OC(=O)c3ccccc32)c1C` (configuration not stated), which TGI is on record?
**A.** 42.9 µM

**Q.** For `CS/C(N)=N\NC(=O)CCC(=O)Nc1ccccc1C(F)(F)F`, which TGI is on record?
**A.** > 83.1 µM

**Q.** Which TGI does the source give for `CC(C)(C)c1ccc2c(c1)S(=O)(=O)Nc1ccccc1NS(=O)(=O)c1cc(C(C)(C)C)ccc1OCCOCCOCCO2` here?
**A.** > 100 µM

**Q.** Which results are given for `CC(=O)[O-].CCN(CC)c1ccc(C=NCCN=Cc2ccc(N(CC)CC)cc2[O-])c([O-])c1.[Mn+3]`?
**A.** GI50: 22.1 µM; TGI: 58.2 µM

**Q.** For `COc1cc2c3c(n(CCCNC(=O)OCC4c5ccccc5-c5ccccc54)c(=O)c2cc1OC)-c1cc2c(cc1/C3=C\CCNC(=O)OCC1c3ccccc3-c3ccccc31)OCO2`, which GI50 is on record?
**A.** > 50 µM

**Q.** What about the TGI of the same compound?
**A.** > 50 µM

**Q.** `NC(N)=N/N=C(\c1nc2ccc([N+](=O)[O-])cc2[nH]c1=O)C(O)c1ccc([N+](=O)[O-])cc1` (configuration not stated) was tested. Which TGI did it give?
**A.** > 100 µM

**Q.** For `CCC[CH2][Sn]1([CH2]CCC)[O]CC(CN2CCCC2)[O]1` (configuration not stated), which GI50 is on record?
**A.** 14.4 µM

**Q.** What about the TGI of the same compound?
**A.** 40.9 µM

**Q.** Which TGI does the source give for `CC1(C)C(=O)N(CCCCCCN2C(=O)C(C)(C)c3ccccc32)c2ccccc21` here?
**A.** > 100 µM

**Q.** `NCCCCN(CCCN)/[N+]([O-])=N\O` was tested. Which TGI did it give?
**A.** > 100 µM

**Q.** Which GI50 does the source give for `C[C@@]12CC=C3c4nc(Nc5cccc(O)c5)sc4CC[C@]3(C)[C@H]1CC[C@]1(C)C(=O)CC[C@@H]21` here?
**A.** 3.19 µM

**Q.** And the TGI?
**A.** > 100 µM

**Q.** For `CN1C(=O)c2cccc3cc([N+](=O)[O-])cc(c23)C1=O`, which TGI is on record?
**A.** > 10 µM

— PubChem BioAssay (NCI)
